In brackets after ≈: the same amount, converted by molar mass.
How the values were obtained:
[1] = Contact angle (wettability) of powder samples with drops of the different fluids; format: physicochemical
Experimental: In total, 120 mg of each sample was placed in a cylindrical ring, and the surface was smoothed with a scraper. The Contact Angle Meter DMe-211Plus (NTG Nuova Tecnogalenica, Cernusco, Italy) was used to record the images of a drop (9 μL) of the different fluids once placed in contact with the surface of the samples at progressive times. The contact angles were measured using the software supplied with the apparatus (three replicates).

[2] = Solubility at equilibrium, shake flask method with spectrophotometric determination; format: physicochemical; conditions: thermodynamic from solid, 21 °C
Experimental: The samples were sieved through a 230-mesh grid, 63 μm (Endecotts, London, UK).
An excess sample is placed in the flasks containing the three different fluids and left under stirring. At time intervals, a portion of the solution was taken and filtered on a 0.22 μm filter (Millipore Merck, Darmstadt, Germany). The drug concentration was determined using UV detection (Lambda 25, Perkin-Elmer, Monza, Italy). The test was repeated until equilibrium was reached.

[3] = In vitro dissolution test, USP apparatus 2 (paddle); format: physicochemical
Experimental: For the dissolution tests, the USP apparatus 2, paddle (Erweka DT-D6, Erweka GmbH, Dusseldorf, Germany) was used at 37.0 ± 0.5 °C and 50 rpm (three replicates). In 900 mL of 0.01 N hydrochloric acid pH = 2, which is the medium requested by the USP monograph (Pimozide Tablets, Official Monograph. In The United States Pharmacopeia (USP43-NF38); United States Pharmacopeia Convention, Inc.: Rockville, MD, USA, 2023; p. 3548), it can simulate a fasted stomach environment and, in other two fluids, simulates the following: pH 4.5 phosphate buffer (a condition that simulates the gastric environment in fed conditions) and deionized water (neutral conditions). The dissolution media were prepared according to the reagent and buffer solutions section of the USP [33]. […] The drug concentration was determined using UV detection (Lambda 25, Perkin-Elmer, Monza, Italy), and the data were analyzed using the software provided (Winlab V6 software, Perkin-Elmer, Monza, Italy).

[4] = design: method as in doi:10.1016/j.molliq.2015.12.054; conditions: cited from earlier work

| Wettability ([1]; pH 2) | Contact angle ([1]; deionized water) | Contact angle ([1]; pH 4.5) | solubility ([2]; aqueous buffer, pH 4.5 (phosphate buffer)) [µg/mL] | solubility ([2]; simulated gastric fluid, pH 2.0 (0.01N hydrochloric acid)) [µg/mL] | solubility ([2]; H2O (deionized water)) [µg/mL] | Passage into solution ([3]; deionized water (neutral conditions), compared with pH 4.5, 4 mg PMZ) | Fraction of the dose passed into solution in the first hour ([3]; pH 4.5 phosphate buffer (fed stomach), 4 mg PMZ) | Contact angle ([1]; pH 2, after about 3 min) | Contact angle ([1]; pH 2, initial) | Compound | BCS class [4] |
| --- | --- | --- | --- | --- | --- | --- | --- | --- | --- | --- | --- |
| poorly wettable | – | – | – | – | – | – | – | – | – | O=C(O)CCCCC(=O)O [AAD, adipic acid] | – |
| – | less than 100 θ | less than 90 θ | – | – | – | – | – | – | – | [PMZH]2[adipate] [PMZ:AAD 0.66:0.33ev] | – |
| – | ~120 θ | about 130 θ | 6.4 ± 0.2 (≈ 13.9 µM) | 175 ± 1.8 (≈ 380 µM) | 1.4 ± 0.3 (≈ 3.03 µM) | further depressed | just a very tiny fraction of the dose | 4 θ | 120 θ | O=c1[nH]c2ccccc2n1C1CCN(CCCC(c2ccc(F)cc2)c2ccc(F)cc2)CC1 [PMZ, 1-(1-(4,4-bis(p-fluorophenyl)butyl)-4-piperidyl)-2-benzimidazoline] | class II |
